Values after ≈ are worked out from the molar mass of the structure shown. Bridge positions count the residues as written; N and C are the ends. Square brackets hold non-standard residues; d marks the D form. Peptide text beside a SMILES is read from it. * marks the point of attachment. Heptanoyl(6-Me) = CC(C)CCCCC(=O)*; X1 = CC[C@H](C)CCCCC(=O)*; dDap = NC[C@@H](N)C(=O)O; Dab = NCC[C@H](N)C(=O)O
Key:
[1] = Nephrotoxicity against Sprague-Dawley rat assessed as increase in BUN level at 4 mg/kg, iv administered for 7 days by fully automated biochemistry analyzer XR200PLUS; assay type: toxicity, organism-based; conditions: in vivo, 168 h, time 7 day
[2] = Nephrotoxicity against Sprague-Dawley rat assessed as increase in CRE level at 4 mg/kg, iv administered for 7 days by fully automated biochemistry analyzer XR200PLUS; assay type: toxicity, organism-based; conditions: in vivo, 168 h, time 7 day
[3] = Acute toxicity in iv dosed Swiss mouse assessed as maximum tolerated dose measured after 24 hrs; assay type: organism-based; conditions: in vivo
[4] = Renal cytotoxicity against HK-2 cells incubated for 72 hrs by CCK8 assay; assay type: toxicity, cell-based; conditions: human
[5] = Protein binding in human plasma assessed as unbound fraction at 0.2 uM incubated for 6 hrs by LC-MS/MS analysis; assay type: ADME, cell-free
Escherichia coli [6] = assay: Antibacterial activity against carbapenem-resistant Escherichia coli ATCC BAA-2340 assessed as inhibition of bacterial growth incubated for 16 to 20 hrs by CLSI protocol based broth microdilution method; assay type: functional; conditions: time 16-20 hrs
Pseudomonas aeruginosa [7] = assay: Antibacterial activity against carbapenem-resistant Pseudomonas aeruginosa clinical isolate ets5 assessed as inhibition of bacterial growth incubated for 24 hrs by CLSI protocol based broth microdilution method; assay type: functional
Pseudomonas aeruginosa [8] = assay: Antibacterial activity against carbapenem-resistant Pseudomonas aeruginosa clinical isolate ets22 assessed as inhibition of bacterial growth incubated for 24 hrs by CLSI protocol based broth microdilution method; assay type: functional
Acinetobacter baumannii [9] = assay: Antibacterial activity against carbapenem-resistant Acinetobacter baumannii clinical isolate ets123 assessed as inhibition of bacterial growth incubated for 24 hrs by CLSI protocol based broth microdilution method; assay type: functional
Acinetobacter baumannii [10] = assay: Antibacterial activity against carbapenem-sensitive Acinetobacter baumannii clinical isolate 19-1 assessed as inhibition of bacterial growth incubated for 16 to 20 hrs by CLSI protocol based broth microdilution method; assay type: functional; conditions: time 16-20 hrs
Acinetobacter baumannii [11] = assay: Antibacterial activity against carbapenem-resistant Acinetobacter baumannii clinical isolate ets178 assessed as inhibition of bacterial growth incubated for 24 hrs by CLSI protocol based broth microdilution method; assay type: functional
Klebsiella pneumoniae [12] = assay: Antibacterial activity against carbapenem-resistant Klebsiella pneumoniae clinical isolate ets80 assessed as inhibition of bacterial growth incubated for 24 hrs by CLSI protocol based broth microdilution method; assay type: functional
Pseudomonas aeruginosa [13] = assay: Antibacterial activity against carbapenem-resistant Pseudomonas aeruginosa clinical isolate ets55 assessed as inhibition of bacterial growth incubated for 24 hrs by CLSI protocol based broth microdilution method; assay type: functional
Klebsiella pneumoniae [14] = assay: Antibacterial activity against carbapenem-resistant Klebsiella pneumoniae clinical isolate ets75 assessed as inhibition of bacterial growth incubated for 24 hrs by CLSI protocol based broth microdilution method; assay type: functional
Pseudomonas aeruginosa [15] = assay: Antibacterial activity against carbapenem-resistant Pseudomonas aeruginosa clinical isolate ets84 assessed as inhibition of bacterial growth incubated for 24 hrs by CLSI protocol based broth microdilution method; assay type: functional
Pseudomonas aeruginosa [16] = assay: Antibacterial activity against carbapenem-resistant Pseudomonas aeruginosa clinical isolate ets83 assessed as inhibition of bacterial growth incubated for 24 hrs by CLSI protocol based broth microdilution method; assay type: functional
Acinetobacter baumannii [17] = assay: Antibacterial activity against carbapenem-resistant Acinetobacter baumannii clinical isolate ets104 assessed as inhibition of bacterial growth incubated for 24 hrs by CLSI protocol based broth microdilution method; assay type: functional
Klebsiella pneumoniae [18] = assay: Antibacterial activity against carbapenem-resistant Klebsiella pneumoniae clinical isolate ets26 assessed as inhibition of bacterial growth incubated for 24 hrs by CLSI protocol based broth microdilution method; assay type: functional
Pseudomonas aeruginosa [19] = assay: Antibacterial activity against carbapenem-resistant Pseudomonas aeruginosa clinical isolate ets49 assessed as inhibition of bacterial growth incubated for 24 hrs by CLSI protocol based broth microdilution method; assay type: functional
Acinetobacter baumannii [20] = assay: Antibacterial activity against Acinetobacter baumannii NCTC 13304 (OXA-27) assessed as inhibition of bacterial growth incubated for 16 to 20 hrs by CLSI protocol based broth microdilution method; assay type: functional; conditions: time 16-20 hrs
Klebsiella pneumoniae [21] = assay: Antibacterial activity against carbapenem-resistant Klebsiella pneumoniae clinical isolate ets45 assessed as inhibition of bacterial growth incubated for 24 hrs by CLSI protocol based broth microdilution method; assay type: functional
Escherichia coli [22] = assay: Antibacterial activity against carbapenem-resistant Escherichia coli clinical isolate 231109W005 assessed as inhibition of bacterial growth incubated for 24 hrs by CLSI protocol based broth microdilution method; assay type: functional
Pseudomonas aeruginosa [23] = assay: Antibacterial activity against Pseudomonas aeruginosa ATCC 27853 assessed as inhibition of bacterial growth incubated for 16 to 20 hrs by CLSI protocol based broth microdilution method; assay type: functional; conditions: time 16-20 hrs
Klebsiella pneumoniae [24] = assay: Antibacterial activity against carbapenem-resistant Klebsiella pneumoniae ATCC BAA-1705 assessed as inhibition of bacterial growth incubated for 16 to 20 hrs by CLSI protocol based broth microdilution method; assay type: functional; conditions: time 16-20 hrs
Acinetobacter baumannii [25] = assay: Antibacterial activity against carbapenem-resistant Acinetobacter baumannii clinical isolate ets171 assessed as inhibition of bacterial growth incubated for 24 hrs by CLSI protocol based broth microdilution method; assay type: functional
Pseudomonas aeruginosa [26] = assay: Antibacterial activity against carbapenem-resistant Pseudomonas aeruginosa clinical isolate ets38 assessed as inhibition of bacterial growth incubated for 24 hrs by CLSI protocol based broth microdilution method; assay type: functional
Klebsiella pneumoniae [27] = assay: Antibacterial activity against carbapenem-resistant Klebsiella pneumoniae clinical isolate ets40 assessed as inhibition of bacterial growth incubated for 24 hrs by CLSI protocol based broth microdilution method; assay type: functional
Pseudomonas aeruginosa [28] = assay: Antibacterial activity against carbapenem-resistant Pseudomonas aeruginosa clinical isolate ets33 assessed as inhibition of bacterial growth incubated for 24 hrs by CLSI protocol based broth microdilution method; assay type: functional
Klebsiella pneumoniae [29] = assay: Antibacterial activity against carbapenem-resistant Klebsiella pneumoniae clinical isolate ets74 assessed as inhibition of bacterial growth incubated for 24 hrs by CLSI protocol based broth microdilution method; assay type: functional
Pseudomonas aeruginosa [30] = assay: Antibacterial activity against carbapenem-resistant Pseudomonas aeruginosa clinical isolate ets104 assessed as inhibition of bacterial growth incubated for 24 hrs by CLSI protocol based broth microdilution method; assay type: functional
Escherichia coli [31] = assay: Antibacterial activity against carbapenem-resistant Escherichia coli clinical isolate 231112E006B assessed as inhibition of bacterial growth incubated for 24 hrs by CLSI protocol based broth microdilution method; assay type: functional
Pseudomonas aeruginosa [32] = assay: Antibacterial activity against carbapenem-resistant Pseudomonas aeruginosa clinical isolate ets6 assessed as inhibition of bacterial growth incubated for 24 hrs by CLSI protocol based broth microdilution method; assay type: functional
Pseudomonas aeruginosa [33] = assay: Antibacterial activity against carbapenem-resistant Pseudomonas aeruginosa clinical isolate ets15 assessed as inhibition of bacterial growth incubated for 24 hrs by CLSI protocol based broth microdilution method; assay type: functional
Pseudomonas aeruginosa [34] = assay: Antibacterial activity against carbapenem-resistant Pseudomonas aeruginosa clinical isolate ets85 assessed as inhibition of bacterial growth incubated for 24 hrs by CLSI protocol based broth microdilution method; assay type: functional
Klebsiella pneumoniae [35] = assay: Antibacterial activity against carbapenem-resistant Klebsiella pneumoniae clinical isolate KPN+19-15 assessed as inhibition of bacterial growth incubated for 16 to 20 hrs by CLSI protocol based broth microdilution method; assay type: functional; conditions: time 16-20 hrs
Klebsiella pneumoniae [36] = assay: Antibacterial activity against carbapenem-resistant Klebsiella pneumoniae clinical isolate ets77 assessed as inhibition of bacterial growth incubated for 24 hrs by CLSI protocol based broth microdilution method; assay type: functional
Pseudomonas aeruginosa [37] = assay: Antibacterial activity against carbapenem-resistant Pseudomonas aeruginosa clinical isolate 19-3 assessed as inhibition of bacterial growth incubated for 16 to 20 hrs by CLSI protocol based broth microdilution method; assay type: functional; conditions: time 16-20 hrs
Klebsiella pneumoniae [38] = assay: Antibacterial activity against carbapenem-resistant Klebsiella pneumoniae clinical isolate ets78 assessed as inhibition of bacterial growth incubated for 24 hrs by CLSI protocol based broth microdilution method; assay type: functional
Escherichia coli [39] = assay: Antibacterial activity against carbapenem-resistant Escherichia coli clinical isolate 231016w014 assessed as inhibition of bacterial growth incubated for 24 hrs by CLSI protocol based broth microdilution method; assay type: functional
Acinetobacter baumannii [40] = assay: Antibacterial activity against carbapenem-resistant Acinetobacter baumannii clinical isolate ets30 assessed as inhibition of bacterial growth incubated for 24 hrs by CLSI protocol based broth microdilution method; assay type: functional
Escherichia coli [41] = assay: Antibacterial activity against Escherichia coli ATCC BAA-2523 assessed as inhibition of bacterial growth incubated for 16 to 20 hrs by CLSI protocol based broth microdilution method; assay type: functional; conditions: time 16-20 hrs

In the case of `CC(C)CCCCC(=O)N[C@@H](CCN)C(=O)N[C@H](C(=O)N[C@@H](CCN)C(=O)N[C@H]1CCNC(=O)[C@H]([C@@H](C)O)NC(=O)[C@H](CCN)NC(=O)[C@H](CCN)NC(=O)[C@H](CC(C)C)NC(=O)[C@@H](Cc2ccccc2)NC(=O)[C@H](CCN)NC1=O)[C@@H](C)O.CC[C@H](C)CCCCC(=O)N[C@@H](CCN)C(=O)N[C@H](C(=O)N[C@@H](CCN)C(=O)N[C@H]1CCNC(=O)[C@H]([C@@H](C)O)NC(=O)[C@H](CCN)NC(=O)[C@H](CCN)NC(=O)[C@H](CC(C)C)NC(=O)[C@@H](Cc2ccccc2)NC(=O)[C@H](CCN)NC1=O)[C@@H](C)O` (X1-[Dab]T[Dab][Dab][Dab][dF]L[Dab][Dab]T; lactam 4-C), the Activity [1] is reported as “Toxic”, the Activity [2] is reported as “Toxic” and the MTD at 24 h [3] is reported as 5.4 mg/kg. For the same molecule, the IC50 at 72 h [4] was 66.3 µg/mL.
In the case of `CC(C)CCCCC(=O)N[C@@H](CCN)C(=O)N[C@H](C(=O)N[C@@H](CCN)C(=O)N[C@H]1CCNC(=O)[C@H]([C@@H](C)O)NC(=O)[C@H](CCN)NC(=O)[C@H](CCN)NC(=O)[C@H](CC(C)C)NC(=O)[C@@H](Cc2ccccc2)NC(=O)[C@H](CCN)NC1=O)[C@@H](C)O` ({Heptanoyl(6-Me)}-[Dab]T[Dab][Dab][Dab][dF]L[Dab][Dab]T; lactam 4-C), the fraction unbound at 6 h, 0.2 µM [5] is reported as 0.099.
With `CC(C)CCCCC(=O)N[C@@H](CCN)C(=O)N[C@H](C(=O)N[C@H](CN)C(=O)N[C@H]1CCNC(=O)[C@H]([C@@H](C)O)NC(=O)[C@H](CCN)NC(=O)[C@H](CCN)NC(=O)[C@H]([C@@H](C)O)NC(=O)[C@@H](Cc2ccccc2)NC(=O)[C@H](CCN)NC1=O)[C@@H](C)O` ({Heptanoyl(6-Me)}-[Dab]T[dDap][Dab][Dab][dF]T[Dab][Dab]T; lactam 4-C) the MIC (Escherichia coli [6]) was at most 0.03 µg/mL, the MIC (Pseudomonas aeruginosa [7]) was 1 µg/mL (≈ 0.86 µM) and the MIC (Pseudomonas aeruginosa [8]) was 2 µg/mL (≈ 1.72 µM). It also gave an MIC (Acinetobacter baumannii [9]) of 2 µg/mL (≈ 1.72 µM), an MIC (Acinetobacter baumannii [10]) of at most 0.03 µg/mL and an MIC (Acinetobacter baumannii [11]) of 1 µg/mL (≈ 0.86 µM). The MIC (Klebsiella pneumoniae [12]) was 0.5 µg/mL (≈ 0.43 µM), the MIC (Pseudomonas aeruginosa [13]) was 1 µg/mL (≈ 0.86 µM) and the MIC (Klebsiella pneumoniae [14]) was 0.5 µg/mL (≈ 0.43 µM). For the same molecule, the MIC (Pseudomonas aeruginosa [15]) was 2 µg/mL (≈ 1.72 µM), the MIC (Pseudomonas aeruginosa [16]) was 0.5 µg/mL (≈ 0.43 µM) and the MIC (Acinetobacter baumannii [17]) was 0.06 µg/mL (≈ 0.0516 µM). The MIC (Klebsiella pneumoniae [18]) was 0.5 µg/mL (≈ 0.43 µM), the MIC (Pseudomonas aeruginosa [19]) was under 0.06 µg/mL and the MIC (Acinetobacter baumannii [20]) was at most 0.03 µg/mL. It also gave an MIC (Klebsiella pneumoniae [21]) of 0.25 µg/mL (≈ 0.215 µM), an MIC (Escherichia coli [22]) of under 0.06 µg/mL and an MIC (Pseudomonas aeruginosa [23]) of at most 0.03 µg/mL. The MIC (Klebsiella pneumoniae [24]) was at most 0.03 µg/mL, the MIC (Acinetobacter baumannii [25]) was 0.5 µg/mL (≈ 0.43 µM) and the MIC (Pseudomonas aeruginosa [26]) was 0.5 µg/mL (≈ 0.43 µM). It also gave an MIC (Klebsiella pneumoniae [27]) of 0.125 µg/mL (≈ 0.107 µM), an MIC (Pseudomonas aeruginosa [28]) of 4 µg/mL (≈ 3.44 µM) and an MIC (Klebsiella pneumoniae [29]) of 0.5 µg/mL (≈ 0.43 µM). For the same molecule, the MIC (Pseudomonas aeruginosa [30]) was 1 µg/mL (≈ 0.86 µM), the MIC (Escherichia coli [31]) was under 0.06 µg/mL and the MIC (Pseudomonas aeruginosa [32]) was 0.5 µg/mL (≈ 0.43 µM). For the same molecule, the MIC (Pseudomonas aeruginosa [33]) was 1 µg/mL (≈ 0.86 µM), the MIC (Pseudomonas aeruginosa [34]) was 0.5 µg/mL (≈ 0.43 µM) and the IC50 at 72 h [4] was over 500 µg/mL. The MIC (Klebsiella pneumoniae [35]) was at most 0.03 µg/mL, the MIC (Klebsiella pneumoniae [36]) was 0.5 µg/mL (≈ 0.43 µM) and the MIC (Pseudomonas aeruginosa [37]) was 0.125 µg/mL (≈ 0.107 µM). It also gave an MIC (Klebsiella pneumoniae [38]) of 0.25 µg/mL (≈ 0.215 µM), an MIC (Escherichia coli [39]) of under 0.06 µg/mL and an MIC (Acinetobacter baumannii [40]) of 2 µg/mL (≈ 1.72 µM). The MIC (Escherichia coli [41]) was at most 0.03 µg/mL.

From ChEMBL document CHEMBL6078630, “Design, synthesis, and bioactivity investigation of novel cyclic lipopeptide antibiotics targeting top-priority multidrug-resistant gram-negative bacteria” (Eur J Med Chem, 2024)
